# Experimental data as given in US20230111180A1, “HYDROGEN CONTAINING COMPOSITION AND METHODS OF USING THE SAME” (MiZ Company Limited, priority 2017, published 2023).
# Read-outs that look alike come from different tables or passages of the source.
# Tests used:
# [1] = tested on: mice exposed to blast (bmTBI)
# Experimental: (§1) All animal experiments relating to the present invention were conducted according to the institutional ethical guidelines for animal experiments of the National Defense Medical College and these animal experiments were approved by the Committee for Animal Research at the National Defense Medical College. Inbred C57BL/6 mice were used in this experiment. Age-matched male littermate mice were used in all experiments. The mice were housed in a breeding room with a 12-h light/dark cycle and a room temperature maintained at 24±1° C. The mice had ad libitum access to water and food.
# (§2) The mice at 10 weeks of age were anesthetized by intraperitoneal administration of mixed anesthetic agents containing medetomidine hydrochloride (0.3 mg/kg, Domitol, Meiji Seika Pharma Co., Ltd.), midazolam (4.0 mg/kg, Dormice, Astellas Pharma Inc.), and butorphanol (5.0 mg/kg, Vetorphale, Meiji Seika Pharma Co., Ltd.). […] Following blast exposure, mice were allowed to recover from anesthesia and were subsequently returned to their home cage.
# (§3) Mice were placed in a humid chamber for hydrogen gas inhalation for 6 hours per day. Hydrogen gas diluted by air (4%) was supplied to the chamber from a hydrogen gas supply apparatus (MiZ Company Limited) at a feeding rate of 2 L/min. The mice had ad libitum access to water and food in the chamber.
# Behavioral analysis was performed 7 days after the blast exposure. All mice used in the behavioral analysis were age-matched male littermates. The behavior of each mouse was monitored and analyzed using a computer-operated video tracking system (SMART, Panlab, Barcelona, Spain), unless otherwise stated. In tests using an apparatus with arms, arm entry was counted when all four legs of a mouse entered each arm. The apparatus was washed after each test. Behavioral studies were performed for mice at 11 to 12 weeks of age.
# [2] = tested on: ROS formation in the brains; details: 6 days after blast exposure; 4% hydrogen gas 6 hours per day
# Experimental: as §1, §2, §3
# [3] = tested on: mice exposed to blast (bmTBI); remark: listed apart in the source
# Experimental: All animal experiments relating to the present invention were conducted according to the institutional ethical guidelines for animal experiments of the National Defense Medical College and these animal experiments were approved by the Committee for Animal Research at the National Defense Medical College. Inbred C57BL/6 mice were used in this experiment. Age-matched male littermate mice were used in all experiments. The mice were housed in a breeding room with a 12-h light/dark cycle and a room temperature maintained at 24±1° C. The mice had ad libitum access to water and food. […]
# Behavioral analysis was performed 7 days after the blast exposure. […] The behavior of each mouse was monitored and analyzed using a computer-operated video tracking system (SMART, Panlab, Barcelona, Spain), unless otherwise stated. In tests using an apparatus with arms, arm entry was counted when all four legs of a mouse entered each arm. […]
# A sociability test was performed by using a conventional method. Interaction time with another living mouse versus a stuffed mouse was measured in an open field using two cylinder cages allowing olfactory and minimal tactile feelings. […]
# [4] = tested on: PTSD due to physical abuse in early childhood and later stages; details: 7% hydrogen gas inhaled, before inhalation score 61
# Experimental: Adult women who had experienced the onset of PTSD due to an intense psychological shock received through physical abuse in early childhood and later stages were subjected to inhalation of hydrogen gas with a concentration of 7% by using a hydrogen generator (MHG-2000α, produced by MiZ Company Limited) for 1 to 3 hours per day over 3 weeks. Each of the subjects had been regularly using an analgesic prescribed by a physician to treat pain, and continued the regular use also during the period of inhalation.
# (§4) Symptoms of PTSD were quantified through interviews by a physician.
# [5] = at clinical concentrations, previous studies; cited from earlier work
# [6] = tested on: PTSD caused by abuse in early childhood; details: for Total score (PCL-5): 7% hydrogen gas inhaled, before inhalation score 66
# Experimental: Adult women who had lived for 10 years or longer after the onset of PTSD caused by abuse in early childhood were subjected to inhalation of hydrogen gas with a concentration of 7% by using a hydrogen generator (MHG-2000α, produced by MiZ Company Limited) for at least 1 hour (up to 4 hours) per day over 7 weeks. Each of the subjects had been regularly using an analgesic prescribed by a physician to treat pain, and continued the regular use also during the period of inhalation.
# Symptoms of PTSD were quantified through interviews by a physician with the PTSD Checklist for DSM-5 (PCL-5; published by the National Center for PTSD).
# [7] = tested on: PTSD due to an intense psychological shock received in military operations; details: for Total score: 7% hydrogen gas inhaled, before inhalation score 49
# Experimental: Adult women who had experienced the onset of PTSD due to an intense psychological shock received in military operations were subjected to inhalation of hydrogen gas with a concentration of 7% by using a hydrogen generator (MHG-2000α, produced by MiZ Company Limited) for at least 2 hours (up to 4 hours) per day over 3 weeks. Each of the subjects had been regularly using an analgesic prescribed by a physician to treat pain, and continued the regular use also during the period of inhalation.
# as §4
# [8] = 7 days after blast, 4% hydrogen gas 6 hours per day for 7 days, one-way ANOVA p>0.05
compound,measurement,setting,value
[HH] [hydrogen gas],"Activity, total distance traveled in 10 minutes, versus sham",[1]; [8],did not show abnormal activity
same,"Percentage of time spent in the open arms, comparison of Sham, bmTBI, bmTBI+H2",[1]; [8],did not differ significantly
same,"Gross motor function, latency on accelerating rotarod","[1]; 7 days after blast, 4% hydrogen gas 6 hours per day for 7 days, two-way ANOVA p>0.05",gross motor function was intact
same,Total immobility time during the 6-minute trial,"[1]; bmTBI+H2 group versus control, bmTBI increased, one-way ANOVA F=6.94, p=0.0036",comparable immobility time to control mice (Sham)
same,Latency to the first bout of immobility,"[1]; bmTBI+H2 group versus control, one-way ANOVA F=6.42, p=0.0051",latencies comparable to the control (Sham) group
same,Correct choices (spatial working memory),"[1]; bmTBI+H2 group, Sham 62.6±1.8%, bmTBI 62.3±3.4%, mean±standard error, p>0.05",60.4±3.4%
same,Depression-like behaviors induced by blast exposure,[1]; conclusion from tail suspension and forced swim tests,suppresses depression-like behaviors induced by blast exposure
same,"Duration of interaction with an inanimate novel object, difference between groups",[1]; one-way ANOVA p>0.05,no difference
same,"Time required to find the buried food, difference between groups",[1]; one-way ANOVA p>0.05,no difference was found in the olfactory test
same,ROS in the brains (ethidium fluorescence) versus blast exposure alone,[2],significantly reduced
same,Abnormal social behaviors induced by blast,"[3]; conclusion from sociability, olfactory and novelty tests",suppressed the abnormal social behaviors induced by blast
same,Difference between interaction time with living mouse and with stuffed mouse,"[3]; within bmTBI+H2 group, t-test p>0.05",no significant difference
same,Total score,"[4]; Week 1, average 3 H/day",62
same,Total score,"[4]; Week 2, average 2 H/day",60
same,Total score,"[4]; Week 4, average 1 H/day",49
same,Total score,"[4]; Week 7, average 2 H/day",53
same,Total score,"[4]; Week 10, average 2.15 H/day",50
same,Side effects of hydrogen,[5],no serious side effect
same,Symptoms of PTSD after the initiation of inhalation,"[6]; 7% hydrogen gas, 1 to 4 hours per day over 7 weeks",tended to ameliorate
same,Total score (PCL-5),"[6]; Week 1, average 2.2 H/day",55
same,Total score (PCL-5),"[6]; Week 2, average 3.8 H/day",41
same,Total score (PCL-5),"[6]; Week 4, average 2.8 H/day",41
same,Total score (PCL-5),"[6]; Week 7, average 1.1 H/day",27
same,Symptoms of PTSD after the initiation of inhalation,"[7]; 7% hydrogen gas, 2 to 4 hours per day over 3 weeks",tended to ameliorate
same,Total score,"[7]; Week 2, average 4 H/day",16
same,Total score,"[7]; Week 3, average 2 H/day",12
